No end group written: not given here.
Experiments:
IgG [1] = assay: IgG purification from human serum on POROS-immobilized peptide column; type: binding; conditions: for IgG binding capacity of POROS-peptide column: peptide immobilized on POROS AL via N-terminal end
Procedure: 1 g POROS™ AL (aldehyde) was suspended in 10 mM PBS (pH 7.5) containing 100 mg sodium cyanoborohydride (NaCNBH3). 5 to 20 mg of each of the peptides selected by various screening procedures was added to the resin and the mixture was shaken overnight at room temperature. 100 mg sodium borohydride (NaBH4) was then added and the mixture was shaken for another 2 hrs. The beads were then washed with PBS and packed into 4.6 mm D×100 mm L column using POROS™ Self Pack® device.
100 μl of 1:10 diluted serum was injected onto the peptide column which was equilibrated with 20 mM tris (pH 8.0) at 5 ml/min. The bound proteins were eluted with 0-1 M NaCl gradient in 15 CVs. Fractions were collected manually and concentrated by Speed Vac for subsequent analysis by SDS-polyacrylamide gel electrophoresis.
The […] (SEQ ID NO: 8) peptide with heme group was immobilized on POROS™AL® (aldehyde) via the N-terminal end. This POROS™-peptide conjugate was used to separate IgG from serum at pH 8 under a 0-1 M NaCl gradient. […] To determine the nature of interaction, the purification profile of IgG separated on the POROS™-peptide column was compared with the IgG purified on standard ion exchange columns such as POROS™-CM and POROS™ HQ. […] The effect of the varying loading densities of peptide (from 10 mg/g POROS™ to 100 mg/g POROS™) on specificity and capacity for IgG binding was also investigated. The specificity of the peptide for IgG binding was also investigated. […] At low loading density (10 mg/g POROS™) IgG bound primarily via ionic interaction requiring elution of bound IgG with salt gradient. At higher loading density ([…]) IgG bound strongly and eluted with acid buffer. The binding capacity varied from 1-2 mg/ml column volume at lower ligand density to 30 mg/ml column volume at higher ligand densities.
A simplified analog of the heme peptide ([…]) (SEQ ID NO: 9) was synthesized and immobilized on POROS™ AL via the N-terminal end. […] The bound IgG was eluted from the GAQGHTVBK (SEQ ID NO: 9)-POROS™ column with 100 mM NaCl. The IgG binding capacity was determined to be 5 mg/ml column volume. Loading densities from 20 mg/g to 40 mg peptide /g POROS™ were evaluated. At these ligand densities, the specificity of IgG binding was not affected, but the capacity was reduced.

HSA = biological target: T1, HSA (Homo sapiens, UniProt P02768); assay: HSA binding to heme peptide POROS; conditions: only under very hydrophobic conditions (200 mM sodium sulphate, pH 7 buffer)
T1 construct: purchased Sigma Chemical Co (St. Louis, Mo.)

[2] = tested on: mouse IgG (whole fragment); assay: Solution phase and solid phase peptide screening of natural peptide library; type: binding
Procedure: (§1) 5 mg each of either mouse IgG (whole) or the Fc fragment was incubated with 20 mg of natural library and protein A and G digests, respectively. The mixture was dissolved in 1 ml of a mixture of 25 mM sodium phosphate buffer and 0.15 M NaCl (pH 7) overnight at 4° C. After incubation, several chromatographic runs through the Superdex SEC and RP columns were conducted with 200 of the protein and peptide mixture injected through the Superdex column during each run. The flow rate for the Superdex column was 0.75 m/min with the 25 mM sodium phosphate buffer and 0.15 M NaCl (pH 7) mixture. The early eluting protein peak was collected directly onto the RP column. The remaining portion of the peak was washed off the SEC. The mouse IgG (whole) or Fc fragment and its associated peptides were then eluted from the RP column under the following conditions:
(§2) The IgG activated POROS™ was packed into 4.6 mm D×100 mm L PEEK columns using Self Pack® assembly on BioCAD™ at 20 ml/min flow rate. 5 to 50 mgs peptide library (natural peptide library or polyclonal antibody digest) dissolved in 0.5 to 2.5 ml of 10 mM PBS (pH 7.5) was injected onto the column at flow rate of 0.5 ml/min. After wash with 5 CVs of PBS, the bound portion was eluted with 10 mM HCl and collected manually. […] The fractions corresponding to the bound peptides were concentrated in Speed Vac and analyzed by MALDI-TOF and Edman sequencing. […]

IgG [3] = assay: IgG purification from human serum on POROS-immobilized peptide column; type: binding; conditions: immobilized via carboxyl groups of heme and free C-terminal end
IgG [4] = assay: Solid phase screening of polyclonal antibody digests on immobilized IgG column; type: binding; conditions: tryptic digests of anti-IgG (Fc specific) polyclonal antibodies
Procedure: […] POROS™ EP (epoxy) was suspended in 5 ml 0.1 M phosphate buffer (pH 9) containing 20 mg IgG. After the beads were well suspended, 4 ml 0.1 M phosphate buffer (pH 9) containing 2 M NA2SO4 were added to the mixture and it was shaken overnight at room temperature. The beads were then washed with 10 mM PBS (pH 7.5) and stored in the refrigerator before they were packed into columns.
as §2, with “manually. The fraction was concentrated down to approximately 500 μl and at least 80% of it was injected onto a 4.6 mm D×250 mm L Vydac C18 column at 1 m/min. The RP column was equilibrated with 0.1% TFA/DIW and peptides were eluted with 15 CVs of a 0-40% acetonitrile gradient at flow rate of 1 ml/min.” for “manually.”
Polyclonal antibodies are an interesting and logical source of peptides since they have specific antigen binding sites. […] The amino acid sequence was determined to be […] […]

Concanavalin A (Con A) [5] = biological target: Concanavalin A (Con A) (Canavalia ensiformis, UniProt P02866)
Excerpt: (§3) The lectin Concanavalin A (Con A) has been used. Ligands were screened for specific binding to the sugar site of Con A as an example of the bimolecular approach to screening a mixture of components for interaction with a target. Biotinylated succinyl Con A was immobilized onto a streptavidin POROS™ support (BA cartridge, 2.1×30 mm). […] After exposing the column to 10 CVs of CAB buffer (0.2 m/min.), the remaining peptides were acid eluted onto a RP column. These peptides were eluted from a RP HPLC column using an acetonitrile gradient and the fractions were collected, pooled and sequenced. Recovery of each amino acid was expressed as a percentage of the total amount of amino acids recovered at each cycle of sequencing (AA %). Amino acid enrichment was then expressed for each amino acid as follows: [formula]

Concanavalin A (Con A) [6] = tested on: Concanavalin A (Con A)
Excerpt: as §3

mouse IgG, Fc fragment = assay: Binding of mouse IgG Fc fragment on POROS 19-mer peptide column; conditions: peptide synthesized directly on POROS NH2 resin via C-terminal end; eluted with acid buffer
Procedure: (§4) The 19-mer peptide ([…]) (SEQ ID NO: 7) selected from protein A and G digests was directly synthesized on 20 μm amine-functionalized™ particles by standard FMOC chemistry. About 700 mg of resin was dry packed into a 4.6 mm D×50 mm L PEEK column equipped with 2 μm frits. The packed column was attached with appropriate adapters to a PerSeptive Biosystems 9050 plus continuous flow peptide synthesizer. Upon completion of synthesis, the resin was dried and deprotected using 95% TFA/5% triisopropylsilane for 24 hrs. The final peptide-support conjugate was packed using POROS™ Self Pack® column packing device at flow rate 10 ml/min onto 4.6 mm D×50 mm L column for evaluation as affinity supports.
(§5) The 19-mer peptide column (4.6 mm D×50 mm L) was equilibrated with 20 CVs of equilibration buffer, 20 mM tris (pH 7). About 500 μl of 1 mg/ml of each of the following samples was injected onto the 19-mer peptide column (4.6 mm D×50 mm L): 1) pure IgGs from either human or mouse or chicken, 2) IgA (whole molecule), 3) human serum, 4) fetal bovine serum (1:10 dilution), or 5) 500 μl of 1 mg/ml mouse […]. After injection, the column was washed with 20 CVs of a mixture of 20 mM tris buffer and 0.4 M NaCl (pH 7). The remaining bound proteins were eluted with 20 CVs of 12 mM HCl. […] The bound fractions were collected and analyzed by SDS-Polyacrylamide gel electrophoresis.

IgG [7] = assay: Immunoglobulin class and species selectivity of POROS 19-mer peptide column; type: binding
Procedure: as §4, §5

mouse IgG (Fc fragment) = assay: Solution phase peptide screening (SEC - reversed phase) of protein A and G digests; type: binding; conditions: native and denatured recombinant protein A and G digests
Procedure: as §1
Fractions corresponding to bound peptide peaks were lyophilized and redissolved in 1001 of 0.1% TFA/DIW for mass spec analysis by MALDI-TOF.

With “CAQCHTVEK (cysteine pairing not given here; also: heme group) [tryptic digest peptide of cytochrome c with heme group, immobilized on POROS AL]” the “selectivity for IgG from serum versus ion exchange columns” value (IgG [1]; compared with POROS-CM and POROS HQ, similar conditions) was “higher selectivity for IgG from serum than either of the ion exchange columns”, the “IgG binding capacity at higher ligand densities” value (IgG [1]; higher loading density (100 mg/mg)) was 30 mg/ml column volume and the “IgG binding capacity at lower ligand density” value (IgG [1]; low loading density (10 mg/g POROS)) was 1-2 mg/ml column volume. For the same substance, the “purity of IgG purified from serum” value (IgG [1]; pH 8, 0-1 M NaCl gradient, versus POROS-Protein A) was “comparable purity to that of IgG separated on POROS™-Protein A column”, the “IgG binding capacity of POROS-peptide column” value (IgG [1]; pH 8) was 10 mg/ml column volume and the “binding to HSA” value (HSA) was “bound very weakly”. For the same substance, the “selected as binder in library screening” value [2] was “yielded one peptide” and the “IgG binding when immobilized via carboxyl groups” value (IgG [3]) was “no IgG binding”.
For “GAQGHTVEK (OTHER INFORMATION: Description of Artificial Sequence: synthetic peptide) [simplified analog of the heme peptide; also isolated from polyclonal antibody digests]”, the “specificity of IgG binding from human serum” value (IgG [1]; pH 8, immobilized on POROS via N-terminal end) was “bound specifically”, the “IgG binding capacity of POROS-peptide column” value (IgG [1]; pH 8) was 5 mg/ml column volume and the “selectivity of peptide isolated from denatured antibody digest” value (IgG [4]) was “selective for IgG”.
For HHRSY, the “displacement by competing sugar ligand” value (Concanavalin A (Con A) [5]; high concentration of competing sugar ligand) was “displaced somewhat”, the “binding to Con A immobilized on the column” value (Concanavalin A (Con A) [5]; synthesized peptide) was “capable of binding specifically to Con A” and the “binding to control column” value (Concanavalin A (Con A) [6]) was “little binding to the control column”.
With “TVTEKPEVIDASELTPAVT (also: synthesized on POROS) [19-mer peptide selected from protein A and G digests, synthesized on POROS]” the “binding of mouse IgG Fc fragment (capacity and selectivity)” value (mouse IgG, Fc fragment) was “low capacity but high selectivity”, the “selectivity IgG versus IgA” value (IgG [7]; POROS 19-mer peptide column) was “more selective for IgG than IgA” and the “species selectivity of IgG binding” value (IgG [7]; human versus rabbit, goat or mouse IgG) was “Human IgG bound more selectively”. The “selected as binder in solution phase screening” value (mouse IgG (Fc fragment)) was “identified”.

Source: patent US6794148B2, “High speed, automated, continuous flow, multi-dimensional molecular selection and analysis” (PerSeptive Biosystems, Inc., priority 1995, dated 2004)
